Assay results taken from DBAASP.
In brackets after ≈: the same amount, converted by molar mass.

Tests used:
Assay in all cases: ≥ marks a high value that may be exact or a test limit, other limits are often not marked, values filed in µg/mL are converted to µM
[1] = system: Saccharomyces cerevisiae KCTC 7296
[2] = system: Proteus vulgaris KCTC 2433
[3] = system: Candida albicans TIMM 1768
[4] = system: Salmonella typhimurium KCTC 1926
[5] = system: Bacillus subtilis KCTC 1918
[6] = system: Staphylococcus aureus KCTC 1621
[7] = system: Trichosporon beigelii KCTC 7707
[8] = system: Staphylococcus saprophyticus ATCC 19701
Bacillus subtilis = system: Bacillus subtilis
[9] = system: Enterobacter cloacae ATCC 13047
[10] = system: Klebsiella pneumoniae ATCC 13882
[11] = system: Salmonella enterica subsp. enterica serovar Enteritidis LA5
[12] = system: Salmonella enterica subsp. enterica serovar Enteritidis ATCC 13076
Escherichia coli = system: Escherichia coli
[13] = system: Bacillus cereus ATCC 14579
[14] = system: Staphylococcus haemolyticus DSM 20263
[15] = system: Pseudomonas aeruginosa ATCC 25010
[16] = system: Listeria monocytogenes EGD
[17] = system: Staphylococcus aureus ATCC 29740
[18] = system: Salmonella enterica subsp. enterica serovar Typhimurium ATCC 14028

MIC [1]	MIC [2]	MIC [3]	MIC [4]	MIC [5]	MIC [6]	MIC [7]	MIC [8]	MIC (Bacillus subtilis)	MIC [9]	MIC [10]	MIC [11]	MIC [12]	MIC (Escherichia coli)	MIC [13]	MIC [15]	MIC [16]	MIC [17]	MIC [18]	SMILES	MIC [14]
≥ 50 µM	12.5 µM (≈ 27 µg/mL)	≥ 50 µM	0.78 µM (≈ 1.68 µg/mL)	3.12 µM (≈ 6.73 µg/mL)	3.12 µM (≈ 6.73 µg/mL)	≥ 50 µM	–	–	–	–	–	–	–	–	–	–	–	–	CC[C@H](C)[C@H](NC(=O)CNC(=O)[C@H](CC(C)C)NC(=O)[C@H](CCCN=C(N)N)NC(=O)[C@H](CCCCN)NC(=O)[C@H](Cc1ccccc1)NC(=O)[C@@H](NC(=O)[C@H](CCCCN)NC(=O)[C@H](CCCCN)NC(=O)[C@H](C)N)C(C)C)C(=O)NCC(=O)N[C@@H](C)C(=O)N[C@H](C(=O)N[C@@H](CC(C)C)C(=O)N[C@@H](Cc1c[nH]c2ccccc12)C(=O)N[C@H](C(=O)N[C@@H](CC(C)C)C(=O)N[C@H](C(=O)N[C@H](C(=O)NCC(=O)O)[C@@H](C)O)[C@@H](C)O)C(C)C)C(C)C [AKKVFKRLGIGAVLWVLTTG]	–
–	–	–	–	–	–	–	0.147 µM (≈ 0.662 µg/mL)	0.187 µM (≈ 0.844 µg/mL)	0.177 µM (≈ 0.799 µg/mL)	0.0872 µM (≈ 0.393 µg/mL)	0.147 µM (≈ 0.662 µg/mL)	0.163 µM (≈ 0.732 µg/mL)	0.256 µM (≈ 1.15 µg/mL)	0.208 µM (≈ 0.938 µg/mL)	0.244 µM (≈ 1.1 µg/mL)	0.236 µM (≈ 1.06 µg/mL)	0.06 µM (≈ 0.27 µg/mL)	0.139 µM (≈ 0.624 µg/mL)	CC[C@H](C)[C@H](NC(=O)[C@H](CCCN=C(N)N)NC(=O)[C@H](CCCCN)NC(=O)[C@@H]1CSSC[C@@H]2NC(=O)[C@H](CCCCN)NC(=O)[C@H](CC(C)C)NC(=O)[C@H](Cc3ccccc3)NC(=O)[C@H](C)NC(=O)[C@@H]3CSSC[C@H](NC(=O)[C@H](CCCCN)NC(=O)CNC(=O)[C@H](CO)NC(=O)[C@H]([C@@H](C)CC)NC(=O)[C@H](CC(C)C)NC(=O)[C@H]([C@@H](C)O)NC(=O)[C@H](CC(C)C)NC(=O)[C@H](CO)NC(=O)[C@@H]4CCCN4C2=O)C(=O)N[C@@H](CO)C(=O)N[C@@H](CCCN=C(N)N)C(=O)N[C@@H](Cc2ccccc2)C(=O)N[C@@H](Cc2ccc(O)cc2)C(=O)N[C@@H](CC(C)C)C(=O)N[C@@H](CSSC[C@H](NC(=O)[C@H](CC(=O)O)NC(=O)[C@H](CO)NC(=O)[C@H](CCCCN)NC(=O)[C@H](CCCN=C(N)N)NC(=O)CN)C(=O)N[C@@H](Cc2ccccc2)C(=O)N[C@@H](CCCN=C(N)N)C(=O)N[C@@H](CCCCN)C(=O)N[C@@H](CO)C(=O)NCC(=O)N[C@@H](Cc2ccccc2)C(=O)N3)C(=O)N1)C(=O)N[C@@H](Cc1c[nH]c2ccccc12)C(N)=O [GRKSDCFRKSGFCAFLKCPSLTLISGKCSRFYLCCKRIW]	0.13 µM (≈ 0.584 µg/mL)
